Assay: Log P by HPLC on reversed phase columns (EEC directive 79/831 Annex V.A8)
Type: physicochemical
Summary of the method: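 Reversed-phase HPLC per EEC 79/831 Annex V.A8, LC-UV with 10→95% acetonitrile linear gradient; eluent [a] 0.1% formic acid (acidic), [b] 0.001 M ammonium acetate (neutral), [c] 0.1% phosphoric acid (acidic). Calibrated with C3–C16 straight-chain alkan-2-ones, linear interpolation of retention times; multiple values joined by "+".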

[1] = LogP method [a], compounds of formula (I), Table 1.1
[2] = method [a]: LC-UV, acidic range, 0.1% formic acid in water and acetonitrile
[3] = method [a], compounds of formula (I), Table 1.1
[4] = method marker [a] given with each value, Table 1.1, compounds of formula (I)

## CCOC(=O)C1(NC(=O)c2sc(Br)c(C(F)F)c2Br)CCC1 [1.0506]
[1]
  LogP: 3.66^[a]

## CCOC(=O)c1sc(C#N)c(Cl)c1Cl [II.068]
[2]
  LogP: 3.50^[a]

## O=C(N[C@H]1CCSC1=O)c1sc(Br)c(Br)c1F [I.0017]
[2]
  LogP: 2.89^[a]

## CCOC(=O)CNC(=O)c1sc(C#N)c(Br)c1C [1.0024]
[3]
  LogP: 2.46^[a]

## CCOC(=O)[C@H](Cc1ccccc1)NC(=O)c1sc(Br)c(Br)c1F [1.0154]
Method [a]
  LogP: 4.55^[a]

## CCOC(=O)C(CC(C)C)NC(=O)c1sc(Cl)c(Br)c1Cl (stereo not shown) [1.0185]
Method [a]
  LogP: 5.20^[a]

## CCOC(=O)C(CC(C)C)NC(=O)c1cc(Br)c(Cl)s1 (stereo not shown) [1.0436]
[1]
  LogP: 4.23^[a]

## CCOC(=O)C(Cc1ccccc1)NC(=O)c1sc(C#N)c(Cl)c1Br (stereo not shown) [1.0671]
Method marked [a]
  LogP: 4.14^[a]

## COC(=O)C(NC(=O)c1sc(Cl)c(C#N)c1Br)C1CC1 (stereo not shown) [1.0659]
Method marked [a]
  LogP: 3.00^[a]

## O=C(CNC(=O)c1sc(Br)c(Br)c1F)OC1CSC1 [1.1007]
[4]
  LogP: 3.37^[a]

## CCOC(=O)C(NC(=O)c1sc(Cl)c(Br)c1C)C(=O)OCC [1.0270]
Method marked [a]
  LogP: 3.87^[a]

## COC(=O)c1cc(Cl)c(Br)s1 [II.047]
[2]
  LogP: 3.29^[a]

## O=C(O)c1sc(Cl)c(Br)c1F [II.005]
[2]
  LogP: 2.14^[a]

## CCOC(=O)CNC(=O)c1sc(Cl)c(Br)c1Cl [1.0178]
Method [a]
  LogP: 3.37^[a]

## CCOC(=O)CNC(=O)c1sc(Cl)c(Cl)c1C(F)F [1.0416]
[1]
  LogP: 2.97^[a]

## CCSC(=O)C(NC(=O)c1sc(Cl)c(Br)c1C)C(C)C (racemic) [1.0021]
[3]
  LogP: 4.74^[a]

## CCOC(=O)C1(NC(=O)c2sc(Cl)c(Br)c2C)COC1 [1.0034]
[3]
  LogP: 2.88^[a]

## CCOC(=O)C1(NC(=O)c2sc(C)c(Br)c2F)CC1 [1.0463]
[1]
  LogP: 2.80^[a]

## CCOC(=O)CNC(=O)c1cc(Br)c(C(F)(F)F)s1 [1.0715]
Method marked [a]
  LogP: 3.00^[a]

## O=C(NC1CCOC1=O)c1sc(Br)c(Br)c1F (stereo not shown) [I.0060]
Method [a]: LC-UV, acidic range, 0.1% formic acid in water and acetonitrile, listed as 1.0060
  LogP: 2.25^[a]

## COC(=O)[C@H](Cc1ccccc1)NC(=O)[C@H](CC(=O)O)NC(=O)c1sc(Br)c(Br)c1Cl [I.0488]
[2]
  LogP: 3.20^[a]

## CCOC(=O)C(NC(=O)c1sc(Cl)c(Cl)c1C#N)C(C)C (stereo not shown) [1.0280]
Method marked [a]
  LogP: 3.77^[a]

## CCOC(=O)C(Cc1ccccc1)NC(=O)c1sc(Cl)c(C#N)c1Br (stereo not shown) [1.0660]
Method marked [a]
  LogP: 4.09^[a]

## COC(=O)C1(NC(=S)c2sc(Br)c(Cl)c2C)CC1 [1.0526]
[1]
  LogP: 3.67^[a]

## COC(=O)CNC(=O)c1cc(Cl)c(F)s1 [1.0906]
Method [a]
  LogP: 1.90^[a]

## COC(=O)C(NC(=O)c1cc(Cl)c(C#N)s1)C1CC1 (stereo not shown) [1.0388]
Method marked [a]
  LogP: 2.50^[a]

## CCOC(=O)C(Cc1ccccc1)NC(=O)c1sc(C#N)c(Br)c1Cl (stereo not shown) [1.0586]
Method [a]
  LogP: 4.13^[a]

## CCOC(=O)C(CO)NC(=O)c1sc(Cl)c(Cl)c1C(F)F (stereo not shown) [1.1068]
[4]
  LogP: 2.67^[a]

## CCOC(=O)C[C@H](NC(=O)c1sc(Br)c(Br)c1F)C(=O)OCC [1.0558]
Method [a]
  LogP: 3.76^[a]

## O=C(NC1CCCNC1=O)c1sc(Br)c(Br)c1F (stereo not shown) [I.0061]
[2]
  LogP: 2.01^[a]

## COC(=O)C1(NC(=O)c2sc(Cl)c(Br)c2Cl)CC1 [1.0595]
Method [a]
  LogP: 3.11^[a]

## CCCCOC(=O)C1(NC(=O)c2sc(Br)c(Br)c2F)CCC1 [1.0926]
Method [a]
  LogP: 4.74^[a]

## COC(=O)C(C)(C)NC(=O)c1sc(Br)c(Br)c1C#N [1.0801]
Method [a]
  LogP: 2.81^[a]

## COC(=O)C(Cc1ccc(Cl)cc1)NC(=O)c1sc(Br)c(Br)c1F (stereo not shown) [1.0955]
[4]
  LogP: 4.52^[a]

## Cc1c(C(=O)NC2(C(=O)OC(C)C)CC2)sc(C#N)c1Br [1.0964]
[4]
  LogP: 2.93^[a]

## CCOC(=O)C1(NC(=O)c2sc(Br)c(Cl)c2F)CCC1 [1.0428]
[1]
  LogP: 3.73^[a]

## CCOC(=O)C(CCSC)NC(=O)c1cc(C#N)c(Cl)s1 (stereo not shown) [1.0383]
Method marked [a]
  LogP: 3.01^[a]

## CCOC(=O)C1(NC(=O)c2sc(Br)c(Cl)c2Cl)CSC1 [1.1046]
[4]
  LogP: 3.94^[a]

## NC(=O)C1(NC(=O)c2sc(Br)c(Br)c2F)CC1 [1.0174]
Method [a]
  LogP: 1.94^[a]

## CSCCC(NC(=O)c1cc(Br)c(Cl)s1)C(=O)O (racemic) [1.0005]
[3]
  LogP: 2.58^[a]

## COC(=O)c1sc(C#N)c(Cl)c1Cl [II.079]
[2]
  LogP: 2.99^[a]

## N#CC(Cc1ccccc1)NC(=O)c1sc(Br)c(Br)c1F (stereo not shown) [1.0118]
[3]
  LogP: 3.81^[a]

## COC(=O)c1sc(Cl)c(Br)c1Br [II.026]
[2]
  LogP: 4.02^[a]

## CCOC(=O)C(CCSC)NC(=O)c1sc(Cl)c(Cl)c1C(F)F (stereo not shown) [1.0419]
[1]
  LogP: 3.86^[a]

## CCSC(=O)C1(NC(=O)c2sc(Br)c(Cl)c2C)CC1 [1.0252]
Method [a]
  LogP: 3.74^[a]

## COC(=O)CNC(=O)c1sc(C(F)F)c(Br)c1Br [1.0511]
[1]
  LogP: 2.64^[a]

## CCOC(=O)C(Cc1ccccc1)NC(=O)c1sc(Cl)c(Cl)c1F (stereo not shown) [1.0352]
Method marked [a]
  LogP: 4.47^[a]

## CCOC(=O)C(NC(=O)c1sc(Br)c(I)c1C)C(C)C (stereo not shown) [1.0091]
[3]
  LogP: 4.37^[a]

## CCOC(=O)C(NC(=O)c1sc(Br)c(Br)c1C(F)F)C(C)C (stereo not shown) [1.0360]
Method marked [a]
  LogP: 4.16^[a]

## COC(=O)C(NC(=O)c1sc(Br)c(Br)c1I)C1CC1 (stereo not shown) [1.0262]
Method [a]
  LogP: 3.81^[a]

## Cc1c(C(=O)NC(C(=O)O)C2CC2)sc(Br)c1Cl (stereo not shown) [1.0254]
Method [a]
  LogP: 2.64^[a]

## COC(=O)C(NC(=O)c1sc(Br)c(C(F)F)c1Br)C1CC1 (stereo not shown) [1.0503]
[1]
  LogP: 3.37^[a]

## COC(=O)C1(NC(=O)c2sc(Cl)c(Br)c2F)CC1 [1.0603]
Method [a]
  LogP: 2.70^[a]

## COC(=O)CNC(=O)c1sc(C#N)c(Br)c1C [1.0241]
Method [a]
  LogP: 2.14^[a]

## COC(=O)C1(NC(=O)c2sc(C(F)F)c(Br)c2Br)CC1 [1.0512]
[1]
  LogP: 2.79^[a]

## COC(=O)C(CC(F)F)NC(=O)c1cc(F)c(Br)s1 (racemic) [1.0004]
[3]
  LogP: 2.68^[a]

## N#CCNC(=O)c1sc(Cl)c(Cl)c1C(F)F [1.0745]
Method marked [a]
  LogP: 2.50^[a]

## CCOC(=O)CNC(=O)c1sc(C(F)F)c(Br)c1Br [1.0510]
[1]
  LogP: 3.02^[a]

## O=C(O)c1sc(C(F)F)c(Br)c1Br [II.099]
[2]
  LogP: 2.51^[a]

## N#CCNC(=O)c1cc(Br)c(C(F)(F)F)s1 [1.0724]
Method marked [a]
  LogP: 2.61^[a]

## CCOC(=O)CC[C@H](NC(=O)c1sc(Br)c(Br)c1F)C(=O)OCC [1.0559]
Method [a]
  LogP: 3.84^[a]

## CCOC(=O)CNC(=O)c1sc(Br)c(Br)c1C(F)(F)F [1.0367]
Method marked [a]
  LogP: 3.05^[a]

## CCCOC(=O)C1(NC(=O)c2sc(Br)c(Br)c2Cl)CCC1 [1.0917]
Method [a]
  LogP: 4.78^[a]

## COC(=O)[C@H](CCC(N)=O)NC(=O)c1sc(Cl)c(Cl)c1Br [1.1049]
[4]
  LogP: 2.25^[a]

## O=C(O)CNC(=S)c1sc(Cl)c(Cl)c1I [1.1030]
[4]
  LogP: 3.13^[a]

## O=C(N[C@H]1CCCNC1=O)c1sc(Br)c(Br)c1Cl [I.0956]
[2]
  LogP: 2.31^[a]

## CCOC(=O)C(NC(=O)c1sc(Br)c(Br)c1C#N)C(=O)OCC [1.0805]
Method [a]
  LogP: 3.39^[a]

## CCOC(=O)C1(NC(=O)c2sc(Br)c(C#N)c2Br)CC1 [1.0408]
[1]
  LogP: 2.71^[a]

## Cc1c(C(=O)NC2(C(=O)OC3CCCC3)CC2)sc(C#N)c1Br [1.0980]
[4]
  LogP: 3.36^[a]

## CCOC(=O)C(NC(=O)c1sc(Cl)c(Br)c1F)C(C)C (stereo not shown) [1.0639]
Method [a]
  LogP: 4.40^[a]

## CCOC(=O)C(NC(=O)c1sc(C#N)c(Br)c1C)C1CC1 (stereo not shown) [1.0974]
[4]
  LogP: 3.15^[a]

## CCOC(=O)C1(NC(=S)c2sc(Br)c(Br)c2F)CCC1 [1.0331]
Method marked [a]
  LogP: 4.74^[a]

## O=C(N[C@H]1CCCNC1=O)c1sc(Br)c(Br)c1F [I.0950]
[2]
  LogP: 2.05^[a]
